Test results as given in US20230322776A1, “NEW ARYL-PYRIDO-PYRIMIDIN-ONE DERIVATIVES” (Hoffmann-La Roche Inc., priority 2020, published 2023).
pEC50, pIC50, pKd: −log10 of the molar value.

Columns and labels:
BRAF V660E = BRAF V660E (Homo sapiens, UniProt P15056, V600E); experiment: KD BRAF V660E (Table 1; no method described); format: binding
BRAF = BRAF (Homo sapiens, UniProt P15056); experiment: KD BRAF (Table 1; no method described); format: binding
[1] = test system: A375 cells (V600E mutated BRAF), ERK phospho-T202/Y204; experiment: HTRF assay for P-ERK determination in A375 cells (BRAF inhibition); format: cell-based; conditions: Homo sapiens, A-375, 1 hour drug incubation, DMSO = 100%, 10 μM Dabrafenib = 0%, top concentration 10 μM, read-out: P-ERK_A375: IC50
Description: (§1) A375 is a cellular cancer model expressing V600E mutated BRAF and HCT116 a cellular cancer model expressing WT BRAF. First generation BRAF inhibitors such as e.g. dabrafenib induce a paradox effect on tumour cells in that they inhibit the growth of V600E mutated BRAF cells (such as e.g. A375), while they activate growth in WT BRAF cells (such as e.g. HCT 116). ERK 1,2 phosphorylation (terminal member of the phosphorylation cascade of the MAPK pathway) is hereafter reported as main readout for the activation status of the MAPK pathway. DMEM no-phenol red medium supplemented with L-glutamine was purchased from (Thermo Fisher Scientific). Fetal bovine serum (FBS) was purchased from VWR. Advanced ERK phospho-T202/Y204 kit—10,000 tests was purchased from Cisbio cat #64AERPEH. A375 (catalog #CRL-1619) and HCT116 (catalog #CCL-247) cells were originally obtained from American type Culture Collection (ATCC) and banked by the Roche repository. 384-Well microplates ultized were purchased from Greiner Bio-One, 384-well, (With Lid, HiBase, Low volume cat 784-080).
(§2) HTRF Assay for P-ERK Determination in A375 or HCT116 Cells
(§3) Prior to the assay, A375 and HCT116 cell lines are maintained in DMEM no-phenol red medium supplemented with 10% fetal bovine serum (FBS). Following compound treatment, P-ERK levels are determined by measuring FRET fluorescence signal induced by selective binding of two antibodies provided in the mentioned kit (Cisbio cat #64AERPEH) on ERK protein when phosphorylated at Thr202/Tyr204. Briefly, 8000 cells/well in 12 μl media/well are plated in the 384-well plate and left overnight in the incubator (at 37° C. with 5% CO2-humidified atmosphere), the following day the plate is treated in duplicate with test compounds, dabrafenib and PLX8394 (the latter two as controls) at the following final drug concentrations: 10 μM, 3 μM, 1 μM, 0.3 μM, 0.1 μM, 0.03 μM, 0.01 μM, 0.003 μM and 0.001 μM. All wells are subjected to DMSO normalization and drug incubation occurs for 1 hour. Then, 4 μl of a 4× lysis buffer supplied with the kit are added to the wells, the plate is then centrifuged for 30 second (3000 rpm) and incubated on a plate shaker for 1 h at rt.
(§4) At the end of the incubation 4 μl/well of advanced P-ERK antibody solution (prepared according to manufacturer's instruction) followed by 4 μl/well of criptate P-ERK antibody solution (prepared according to manufacturer's instruction) (Cisbio cat #64AERPEH) are added to test wells.
(§5) In order to allow proper data normalization, control wells non drug treated reported in the following table are always included in each plate (according to manufacturer's instruction):
(§6) The plate is then centrifuged at 3000 rpm for 30 seconds, sealed to prevent evaporation and incubated overnight in the dark at room temperature. The plate is then analyzed and fluorescence emission value collected through a Pherastast FSX (BMG Labtech) apparatus at […]. The obtained fluorescence values are processed according to the formula Ratio=[…]*10000 then the average of the ratio on the blank is subtracted to all values.
Data are normalized in the case of A375 cells (BRAF inhibition) considering the average of the ratio (blank subtracted) derived by DMSO only treated cells as 100% and by considering the average of the ratio (blank subtracted) derived by 10 μM Dabrafenib treated cells as 0%. Mean of the normalized points are fitted with sigmoidal curve and IC50 values are determined.

[2] = test system: HCT116 cells (WT BRAF), ERK phospho-T202/Y204; experiment: HTRF assay for P-ERK determination in HCT116 cells (BRAF activation, paradox); format: cell-based; conditions: for pEC50: Homo sapiens, HCT-116, HCT116 cells, 1 hour drug incubation, activation relative to maximum Dabrafenib-mediated activation (100%), top concentration 10 μM, read-out: P-ERK_HCT-116: EC50—50PCT; for Fold Selectivity HCT-116 EC50-50/ A375: ratio of P-ERK HCT-116 EC50-50PCT to P-ERK A375 IC50
Description: as §1, §2, §3, §4, §5, §6
Data are normalized in the case of HCT116 cells (BRAF activation) considering the average of the ratio (blank subtracted) derived by DMSO only treated cells as 0% and by considering the average of the ratio (blank subtracted) derived by Dabrafenib treated cells at the concentration which provides the highest signal as 100%. Individual points are fitted with either sigmoidal or bell shape curves, the percentage of activation compared to maximum Dabrafenib-mediated activation is determined.

Sequence of BRAF (P15056 whole entry): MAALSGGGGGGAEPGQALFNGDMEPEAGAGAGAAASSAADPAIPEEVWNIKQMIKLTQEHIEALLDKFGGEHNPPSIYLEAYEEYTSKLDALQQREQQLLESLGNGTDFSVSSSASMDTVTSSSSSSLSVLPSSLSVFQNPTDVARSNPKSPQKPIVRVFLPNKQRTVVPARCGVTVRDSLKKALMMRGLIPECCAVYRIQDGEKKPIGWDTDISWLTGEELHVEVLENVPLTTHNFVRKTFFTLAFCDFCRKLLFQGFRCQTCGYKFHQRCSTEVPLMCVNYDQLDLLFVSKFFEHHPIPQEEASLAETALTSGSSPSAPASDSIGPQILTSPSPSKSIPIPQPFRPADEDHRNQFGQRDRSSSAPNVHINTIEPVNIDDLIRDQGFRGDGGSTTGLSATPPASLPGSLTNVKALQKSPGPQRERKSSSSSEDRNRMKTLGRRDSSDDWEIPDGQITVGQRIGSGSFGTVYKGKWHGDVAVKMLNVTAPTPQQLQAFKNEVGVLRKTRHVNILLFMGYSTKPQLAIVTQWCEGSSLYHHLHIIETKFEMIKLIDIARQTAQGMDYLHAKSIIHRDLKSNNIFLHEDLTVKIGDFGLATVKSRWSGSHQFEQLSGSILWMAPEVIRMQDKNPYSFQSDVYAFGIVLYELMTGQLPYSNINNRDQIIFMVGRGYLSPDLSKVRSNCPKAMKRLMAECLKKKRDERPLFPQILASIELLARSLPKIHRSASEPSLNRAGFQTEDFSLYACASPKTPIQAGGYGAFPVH
Sequence of BRAF V660E (P15056 2-766 V600E): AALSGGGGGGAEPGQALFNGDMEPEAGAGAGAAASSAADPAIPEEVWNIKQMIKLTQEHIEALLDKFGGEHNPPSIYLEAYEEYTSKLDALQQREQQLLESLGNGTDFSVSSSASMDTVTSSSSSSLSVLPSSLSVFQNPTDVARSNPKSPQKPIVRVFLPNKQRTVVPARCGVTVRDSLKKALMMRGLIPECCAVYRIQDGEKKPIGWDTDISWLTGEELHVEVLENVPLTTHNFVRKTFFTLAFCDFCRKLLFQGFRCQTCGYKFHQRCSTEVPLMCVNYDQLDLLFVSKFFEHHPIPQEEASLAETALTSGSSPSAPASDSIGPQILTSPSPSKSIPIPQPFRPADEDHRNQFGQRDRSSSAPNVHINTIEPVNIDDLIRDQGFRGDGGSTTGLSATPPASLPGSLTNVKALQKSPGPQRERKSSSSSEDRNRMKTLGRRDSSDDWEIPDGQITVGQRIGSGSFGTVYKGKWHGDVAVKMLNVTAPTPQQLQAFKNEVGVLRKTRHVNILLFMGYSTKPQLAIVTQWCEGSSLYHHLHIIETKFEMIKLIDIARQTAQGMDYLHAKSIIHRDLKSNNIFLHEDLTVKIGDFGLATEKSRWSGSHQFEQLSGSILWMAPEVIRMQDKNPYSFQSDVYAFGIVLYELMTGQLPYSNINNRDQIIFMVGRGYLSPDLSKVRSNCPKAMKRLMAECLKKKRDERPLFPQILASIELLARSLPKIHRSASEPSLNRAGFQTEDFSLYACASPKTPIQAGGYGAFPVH

Compound	pKd (BRAF V660E)	pKd (BRAF)	pIC50 [1]	pEC50 [2]	Fold Selectivity HCT-116 EC50-50/ A375 [2]
CCN(C)S(=O)(=O)Nc1ccc(F)c(-c2cc3cnc(NCCOCCOCCO)nc3n(C)c2=O)c1F [Example 9, 6-[3-[[ethyl(methyl)sulfamoyl]amino]-2,6-difluorophenyl]-2-[2-[2-(2-hydroxyethoxy)ethoxy]ethylamino]-8-methyl-7-oxopyrido[2,3-d]pyrimidine]	6.38	6.87	6.82	≤ 5.00	>65.4
Cn1c(=O)c(-c2c(F)ccc(NS(=O)(=O)N3CC[C@@H](F)C3)c2F)cc2cnc(NCC3CC3)nc21 [Example 10, (3R)-N-[3-[2-(cyclopropylmethylamino)-8-methyl-7-oxopyrido[2,3-d]pyrimidin-6-yl]-2,4-difluorophenyl]-3-fluoropyrrolidine-1-sulfonamide]	7.43	7.72	8.00	6.19	65.1
CCN(C)S(=O)(=O)Nc1ccc(F)c(-c2cc3cnc(NCC4CC4)nc3n(C)c2=O)c1F [Example 11, 2-(cyclopropylmethylamino)-6-[3-[[ethyl(methyl)sulfamoyl]amino]-2,6-difluorophenyl]-8-methyl-7-oxopyrido[2,3-d]pyrimidine]	6.36	6.80	7.15	≤ 5.00	>140.9
CN(C1CC1)S(=O)(=O)Nc1ccc(F)c(-c2cc3cnc(NCC4CC4)nc3n(C)c2=O)c1F [Example 12, 2-(cyclopropylmethylamino)-6-[3-[[cyclopropyl(methyl)sulfamoyl]amino]-2,6-difluorophenyl]-8-methyl-7-oxopyrido[2,3-d]pyrimidine]	6.31	7.07	6.96	5.65	20.4
Cn1c(=O)c(-c2c(F)ccc(NS(=O)(=O)C3CCCC3)c2F)cc2cnc(NCCC3CCN(C(=O)OC(C)(C)C)CC3)nc21 [Example 13, tert-butyl 4-[2-[[6-[3-(cyclopentylsulfonylamino)-2,6-difluorophenyl]-8-methyl-7-oxopyrido[2,3-d]pyrimidin-2-yl]amino]ethyl]piperidine-1-carboxylate]	6.36	6.46	6.56	5.02	34.7
Cl.Cn1c(=O)c(-c2c(F)ccc(NS(=O)(=O)N3CC[C@@H](F)C3)c2F)cc2cnc(NCCC3CCNCC3)nc21 [Example 14, (3R)—N-[2,4-difluoro-3-[8-methyl-7-oxo-2-(2-piperidin-4-ylethylamino)pyrido[2,3-d]pyrimidin-6-yl]phenyl]-3-fluoropyrrolidine-1-sulfonamide hydrochloride]	6.97	7.42	6.10	≤ 5.00	12.7
Cl.Cn1c(=O)c(-c2c(F)ccc(NS(=O)(=O)N3CC[C@@H](F)C3)c2F)cc2cnc(NCCOCCN)nc21 [Example 15, (3R)-N-[3-[2-[2-(2-aminoethoxy)ethylamino]-8-methyl-7-oxopyrido[2,3-d]pyrimidin-6-yl]-2,4-difluorophenyl]-3-fluoropyrrolidine-1-sulfonamide hydrochloride]	6.71	7.09	6.21	≤ 5.00	16.2
CNCCCNc1ncc2cc(-c3c(F)ccc(NS(=O)(=O)N4CC[C@@H](F)C4)c3F)c(=O)n(C)c2n1.Cl [Example 16, (3R)-N-[2,4-difluoro-3-[8-methyl-2-[3-(methylamino)propylamino]-7-oxopyrido[2,3-d]pyrimidin-6-yl]phenyl]-3-fluoropyrrolidine-1-sulfonamide hydrochloride]	6.53	6.83	6.16	≤ 5.00	14.6
